Test results reported in the supplement of paper PMC11451515.

Tested on: SEM cells
Experiment: cell viability relative to DMSO control; higher = less cytotoxic
Details: 48 h
Outline: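 NOMO1 or SEM (500 cells/well) or P12-Ichikawa (1000 cells/well) leukemia cells were adapted for at least four passages in each medium. They were seeded in 1536-well plates (5 μl) and pin-dosed with library compounds in DMSO over an 11-point threefold series, 47 μM to 0.79 nM. CellTiter-Glo One luminescence was read after 48 h at 37°C. Viability is the per-plate percentage relative to DMSO wells, with cell-free wells as background.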

[1] = HPLM + 10% dialyzed FBS, 0.000781 µM
[2] = HPLM + 10% dialyzed FBS, 0.00234 µM
[3] = HPLM + 10% dialyzed FBS, 0.00702 µM
[4] = HPLM + 10% dialyzed FBS, 0.0211 µM
[5] = HPLM + 10% dialyzed FBS, 0.0632 µM
[6] = HPLM + 10% dialyzed FBS, 0.19 µM
[7] = HPLM + 10% dialyzed FBS, 0.569 µM
[8] = HPLM + 10% dialyzed FBS, 1.71 µM
[9] = HPLM + 10% dialyzed FBS, 5.12 µM
[10] = HPLM + 10% dialyzed FBS, 15.4 µM
[11] = HPLM + 10% dialyzed FBS, 46.1 µM
[12] = RPMI 5 mM glucose + 10% FBS, 0.000781 µM
[13] = RPMI 5 mM glucose + 10% FBS, 0.00234 µM
[14] = RPMI 5 mM glucose + 10% FBS, 0.00702 µM
[15] = RPMI 5 mM glucose + 10% FBS, 0.0211 µM
[16] = RPMI 5 mM glucose + 10% FBS, 0.0632 µM
[17] = RPMI 5 mM glucose + 10% FBS, 0.19 µM
[18] = RPMI 5 mM glucose + 10% FBS, 0.569 µM
[19] = RPMI 5 mM glucose + 10% FBS, 1.71 µM
[20] = RPMI 5 mM glucose + 10% FBS, 5.12 µM
[21] = RPMI 5 mM glucose + 10% FBS, 15.4 µM
[22] = RPMI 5 mM glucose + 10% FBS, 46.1 µM
[23] = RPMI 5 mM glucose + 10% dialyzed FBS, 0.000781 µM
[24] = RPMI 5 mM glucose + 10% dialyzed FBS, 0.00234 µM
[25] = RPMI 5 mM glucose + 10% dialyzed FBS, 0.00702 µM
[26] = RPMI 5 mM glucose + 10% dialyzed FBS, 0.0211 µM
[27] = RPMI 5 mM glucose + 10% dialyzed FBS, 0.0632 µM
[28] = RPMI 5 mM glucose + 10% dialyzed FBS, 0.19 µM
[29] = RPMI 5 mM glucose + 10% dialyzed FBS, 0.569 µM
[30] = RPMI 5 mM glucose + 10% dialyzed FBS, 1.71 µM
[31] = RPMI 5 mM glucose + 10% dialyzed FBS, 5.12 µM
[32] = RPMI 5 mM glucose + 10% dialyzed FBS, 15.4 µM
[33] = RPMI 5 mM glucose + 10% dialyzed FBS, 46.1 µM

| Structure (SMILES) | cell viability [1] [%] | cell viability [2] [%] | cell viability [3] [%] | cell viability [4] [%] | cell viability [5] [%] | cell viability [6] [%] | cell viability [7] [%] | cell viability [8] [%] | cell viability [9] [%] | cell viability [10] [%] | cell viability [11] [%] | cell viability [12] [%] | cell viability [13] [%] | cell viability [14] [%] | cell viability [15] [%] | cell viability [16] [%] | cell viability [17] [%] | cell viability [18] [%] | cell viability [19] [%] | cell viability [20] [%] | cell viability [21] [%] | cell viability [22] [%] | cell viability [23] [%] | cell viability [24] [%] | cell viability [25] [%] | cell viability [26] [%] | cell viability [27] [%] | cell viability [28] [%] | cell viability [29] [%] | cell viability [30] [%] | cell viability [31] [%] | cell viability [32] [%] | cell viability [33] [%] |
| --- | --- | --- | --- | --- | --- | --- | --- | --- | --- | --- | --- | --- | --- | --- | --- | --- | --- | --- | --- | --- | --- | --- | --- | --- | --- | --- | --- | --- | --- | --- | --- | --- | --- |
| CC1(C)C(=O)N(CCN2CCC(C(=O)c3ccc(F)cc3)CC2)c2ccccc21 | 92.5 | 111 | 113 | 111 | 119 | 119 | 119 | 113 | 103 | 98.7 | 101 | 102 | 121 | 115 | 115 | 105 | 117 | 115 | 100 | 89.7 | 107 | 94.2 | 111 | 109 | 105 | 134 | 116 | 115 | 117 | 124 | 111 | 114 | 101 |
| CCC[C@H](N[C@@H](C)C(=O)N1[C@H](C(=O)O)C[C@@H]2CCCC[C@@H]21)C(=O)OCC | 114 | 111 | 104 | 114 | 120 | 115 | 118 | 112 | 106 | 111 | 105 | 107 | 101 | 107 | 110 | 105 | 116 | 104 | 110 | 105 | 98.6 | 102 | 110 | 105 | 108 | 122 | 111 | 110 | 107 | 106 | 125 | 122 | 106 |
| CCc1c(C(=O)C(N)=O)c2c(OCC(=O)O)cccc2n1Cc1ccccc1 | 103 | 93.2 | 94.3 | 107 | 98.7 | 104 | 102 | 98.2 | 90.8 | 88.3 | 84.5 | 101 | 100 | 116 | 110 | 90.8 | 98.4 | 111 | 111 | 114 | 88.4 | 82.6 | 92.9 | 102 | 104 | 116 | 104 | 105 | 123 | 92.7 | 106 | 91.9 | 89.3 |
| Oc1ccc(C2CCN(c3ccnc4ccccc34)CC2)cc1O | 55.8 | 98.9 | 88.8 | 93.5 | 118 | 94.1 | 95.4 | 89.5 | 76.6 | 56.3 | 30.7 | 56.9 | 98 | 93.6 | 94.6 | 106 | 116 | 96.7 | 83 | 62.3 | 43.9 | 13.6 | 54.9 | 92.2 | 97.3 | 114 | 114 | 115 | 88.7 | 96.2 | 59.1 | 45.9 | 39.2 |
| CC(C)Nc1cc(C(F)(F)F)cc2nc(NC(=O)c3cccnc3)nn12 | 113 | 105 | 101 | 118 | 119 | 96.6 | 102 | 42.3 | 26.5 | 13.7 | 5.96 | 113 | 112 | 95.3 | 110 | 107 | 89.2 | 94.2 | 18 | 15.8 | 8.3 | 2.38 | 126 | 98.6 | 116 | 113 | 102 | 94 | 101 | 23.2 | 16.3 | 11.1 | 4.75 |
| O=C1Nc2ccc(Cl)cc2[C@@](C#CC2CC2)(C(F)(F)F)O1 | 65.1 | 74 | 86.3 | 95 | 86 | 88.4 | 88.8 | 80.2 | 88.9 | 96 | 93.4 | 71.8 | 69.8 | 82.2 | 84.9 | 89.6 | 84.6 | 84.4 | 87.8 | 85.9 | 91.6 | 63.7 | 62.1 | 70 | 89.5 | 81.2 | 82.7 | 78.9 | 85.6 | 81.5 | 81.8 | 84.8 | 54.7 |
| C[C@@H]1CN[C@H]2[C@@H](C)[C@@]\3(CC[C@H]\4[C@@H]5C/C=C6/C[C@@H](O)CC[C@]6(C)[C@H]5CC4=C3C)O[C@@H]2C1 | 78.3 | 122 | 119 | 119 | 129 | 118 | 127 | 114 | 114 | 98.4 | 84.6 | 77.7 | 119 | 132 | 141 | 118 | 115 | 117 | 120 | 105 | 109 | 93.5 | – | – | – | – | – | – | – | – | – | – | – |
| CCCCCCCc1ccc(CCc2cccc(O)c2C(=O)O)cc1 | – | – | – | – | – | – | – | – | – | – | – | 82.3 | 113 | 126 | 128 | 120 | 112 | 111 | 122 | 105 | 107 | 101 | 75.5 | 121 | 135 | 130 | 119 | 111 | 134 | 119 | 110 | 125 | 107 |
| O=C1Nc2cc(Br)ccc2/C1=C1/Nc2ccccc2/C1=N\O | 109 | 102 | 110 | 100 | 108 | 78.5 | 66.5 | 31.5 | 4.61 | 3.01 | 1.68 | 87.2 | 113 | 110 | 95.3 | 98.4 | 98.8 | 60 | 21.3 | 2.47 | 1.39 | 0.712 | 111 | 102 | 89.9 | 99.4 | 90.5 | 69.9 | 64.9 | 34.8 | 4.53 | 2.51 | 1.3 |
